Data from patent US11397182B2, “Methods for prognosing and preventing metastatic liver disease” (CORNELL UNIVERSITY, priority 2014, dated 2022).

How the values were obtained:
[1] = target: T1, TGF-beta type I receptor (Mus musculus, UniProt Q64729); test: Systemic TGFβ receptor inhibition during PAN02 exosome education, liver immunofluorescence; type: in vivo; conditions: A83-01 i.p. during the three-week course of PAN02 exosome education
T1 construct: from tissue; host or cells: living C57Bl/6 mice; liver analysed by immunofluorescence
T1 sequence (Q64729 30-503): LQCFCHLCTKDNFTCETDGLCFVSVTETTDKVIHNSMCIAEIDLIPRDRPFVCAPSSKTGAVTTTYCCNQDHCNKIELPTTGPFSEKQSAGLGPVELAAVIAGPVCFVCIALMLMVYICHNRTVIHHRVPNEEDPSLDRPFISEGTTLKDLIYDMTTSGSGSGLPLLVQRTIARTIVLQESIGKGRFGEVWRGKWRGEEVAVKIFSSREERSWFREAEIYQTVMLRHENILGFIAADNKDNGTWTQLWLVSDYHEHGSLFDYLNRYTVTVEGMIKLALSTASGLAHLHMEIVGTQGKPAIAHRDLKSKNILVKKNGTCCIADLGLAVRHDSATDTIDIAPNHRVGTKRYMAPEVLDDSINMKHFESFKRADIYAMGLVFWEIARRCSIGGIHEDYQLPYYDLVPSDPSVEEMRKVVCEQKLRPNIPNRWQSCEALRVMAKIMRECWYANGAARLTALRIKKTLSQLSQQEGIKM
Method: Five micrograms of total exosomal protein was injected into the retro-orbital venous sinus in a total volume of 100 μl PBS. For education experiments, mice received 5 μg of exosomes every other day, 3 times a week. For exosome-tracking experiments, purified exosomes were fluorescently labelled using PKH67 membrane dye (Sigma). Labelled exosomes were washed in 20 ml of PBS, collected by ultracentrifugation, and resuspended in PBS. In experiments involving evaluation of exosome incorporation, labelled exosomes were injected 24 h before tissue collection and analysis for exosome^+ cells was conducted by flow cytometry or immunofluorescence. For exosome-tracking experiments, 5 μg of non-tumour exosomes from normal pancreas were used as controls. Unlabeled exosomes were used as controls of signal specificity. For education experiments, retro-orbital injection of PBS or normal pancreata exosomes was used in control groups.
For systemic TGFβ receptor inhibition, mice were treated with intraperitoneal injections of A83-01 (Santa Cruz). Mice were administered 10 μg of A83-01 (diluted in 100 μl of dimethylsulphoxide) per gram of mouse weight for a total of 9 doses, every other day, for the three weeks of PAN02 exosome education.
For histological analysis, tissues were dissected and fixed in a mix of 2% PFA and 20% sucrose solution overnight, and then embedded in Tissue-tek O.C.T. (Electron Microscopy Sciences). Blocks were frozen in a dry ice and ethanol bath. […] GFP and mCherry′ cells were detected by their intrinsic signal. Fluorescent images were obtained using a Nikon confocal microscope (Eclipse TE2000U) and analyzed using Nikon software (EZ-C1 3.6). FN and αSMA expression were quantified using ImageJ Software (NIH) by determining the ratio between the areas of FN and DAPI staining, expressed in arbitrary units (a.u.).

[2] = system: fibronectin; test: Tamoxifen-driven conditional FN knockout during PAN02 exosome education, liver immunofluorescence; type: in vivo, mouse; conditions: tamoxifen treatment of Rosa-CreER+; Fn fl/fl mice during PAN02 exosome education
Source text: To generate inducible FN knockout mice, we crossed B6; 129-Gt(ROSA)26SOR^tm1(cre/ERT2)Tyj/J mice expressing tamoxifen-sensitive Cre under the Gt(Rosa)26 or promoter (Jackson Laboratories, stock 008463) with mice homozygous for a floxed allele of fibronectin (Fn^fl/fl, generously provided by R. Fässler, Max Planck Institute of Biochemistry) (Sakai et al., “Plasma Fibronectin Supports Neuronal Survival and Reduces Brain Injury Following Transient Focal Cerebral Ischemia but is Not Essential for Skin-Wound Healing and Hemostasis,” Nat. Med. 7:324-330 (2001), which is hereby incorporated by reference in its entirety). […] For verification of Fn deletion, liver FN expression was evaluated by immunofluorescence.
For histological analysis, tissues were dissected and fixed in a mix of 2% PFA and 20% sucrose solution overnight, and then embedded in Tissue-tek O.C.T. (Electron Microscopy Sciences). […] GFP and mCherry′ cells were detected by their intrinsic signal. Fluorescent images were obtained using a Nikon confocal microscope (Eclipse TE2000U) and analyzed using Nikon software (EZ-C1 3.6). FN and αSMA expression were quantified using ImageJ Software (NIH) by determining the ratio between the areas of FN and DAPI staining, expressed in arbitrary units (a.u.).

SMILES | F4/80+ macrophage migration to the liver [1] | FN deposition in the liver [1] | frequency of αSMA+ hStCs in the liver [1] | FN deposition in the liver [2] | αSMA expression in the liver [2]
Cc1cccc(-c2nn(C(=S)Nc3ccccc3)cc2-c2ccnc3ccccc23)n1 [A83-01, 3-(6-Methyl-2-pyridinyl)-N-phenyl-4-(4-quinolinyl)-1H-pyrazole-1-carbothioamide] | reduced | reduced | reduced | – | –
CC/C(=C(\c1ccccc1)c1ccc(OCCN(C)C)cc1)c1ccccc1 [tamoxifen] | – | – | – | reduced to control | not affected
